ChEMBL document CHEMBL1126719, “The solution conformation of (D)Phe-Pro-containing peptides: implications on the activity of Ac-(D)Phe-Pro-boroArg-OH, a potent thrombin inhibitor” (J Med Chem, 1993)

Biological target: Prothrombin (Homo sapiens, UniProt P00734)
Assay: Inhibition constant for binding with thrombin was determined

Row | SMILES | Ki [nM]
1 | CC(=O)N[C@H](Cc1ccccc1)C(=O)NCC(=O)NC(CCCN=C(N)N)B(O)O (stereo not given in full) | 4.3
2 | CC(=O)N1CCC[C@H]1C(=O)NC(CCCN=C(N)N)B(O)O (stereo not given in full) | 3.3
3 | CC(=O)NCC(=O)NC(CCCN=C(N)N)B(O)O (stereo not given) | 26

Stronger by Ki, values ahead:

Row | Ki [nM] | SMILES
4 | 0.4 | CC(C)(C)OC(=O)N[C@H](Cc1ccccc1)C(=O)NCC(=O)NC(CCCN=C(N)N)B(O)O (stereo not given in full)
5 | 0.004 | CC(C)(C)OC(=O)N[C@H](Cc1ccccc1)C(=O)N1CCC[C@H]1C(=O)NC(CCCN=C(N)N)B(O)O (stereo not given in full)
